Laboratory results reported in patent US9663543B2 (priority 2014, dated 2017).

Target: Human factor D (Homo sapiens (Human), UniProt P00746)
Type: biochemical

Human factor D, sequence (P00746 26-253 limits assumed): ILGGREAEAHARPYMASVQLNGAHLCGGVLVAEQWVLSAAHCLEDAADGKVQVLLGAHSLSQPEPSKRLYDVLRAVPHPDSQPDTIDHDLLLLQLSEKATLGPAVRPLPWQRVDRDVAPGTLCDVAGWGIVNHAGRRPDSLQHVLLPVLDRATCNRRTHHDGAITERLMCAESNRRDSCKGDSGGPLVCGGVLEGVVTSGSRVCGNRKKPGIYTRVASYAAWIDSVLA

CC(=O)c1cn(CC(=O)N2C[C@H](F)C[C@H]2C(=O)NCc2cccc(Cl)c2F)c2ccc(P(=O)(O)O)cc12 [Compound 10, 3-acetyl-1-(2-((2S,4R)-2-(3-chloro-2-fluorobenzylcarbamoyl)-4-fluoropyrrolidin-1-yl)-2-oxoethyl)-1H-indol-5-ylphosphonic acid]
IC50: < 1000 nM

CC(=O)c1cn(CC(=O)N2C[C@H](F)C[C@H]2C(=O)NCc2cccc(Cl)c2F)c2cc(P(=O)(OCC(F)(F)F)OCC(F)(F)F)ccc12 [Compound 19, bis(2,2,2-trifluoroethyl) 3-acetyl-1-(2-((2S,4R)-2-(3-chloro-2-fluorobenzylcarbamoyl)-4-fluoropyrrolidin-1-yl)-2-oxoethyl)-1H-indol-6-ylphosphonate]
IC50: < 1000 nM

CCOP(=O)(OCC)c1ccc2c(c1)c(C(C)=O)cn2CC(=O)N1C[C@H](F)C[C@H]1C(=O)NCc1cccc(Cl)c1F [Compound 8, diethyl 3-acetyl-1-(2-((2S,4R)-2-(3-chloro-2-fluorobenzylcarbamoyl)-4-fluoropyrrolidin-1-yl)-2-oxoethyl)-1H-indol-5-ylphosphonate]
IC50: < 1000 nM

CC(=O)c1cn(CC(=O)N2C[C@H](F)C[C@H]2C(=O)NCc2cccc(Cl)c2F)c2cc(P(=O)(OCOC(=O)C(C)(C)C)OCOC(=O)C(C)(C)C)ccc12 [Compound 26, ((3-acetyl-1-(2-((2S,4R)-2-(3-chloro-2-fluorobenzylcarbamoyl)-4-fluoropyrrolidin-1-yl)-2-oxoethyl)-1H-indol-6-yl)phosphoryl)bis(oxy)bis (methylene) bis(2,2-dimethylpropanoate)]
IC50: < 1000 nM
